Test results from patent US6348317B1, “Fluorescent and DNA cleavage properties of peptide/dye conjugates” (The Arizona Board of Regents, priority 1999, dated 2002).
pKd: −log10 of the molar value.

Tests used:
[1] = biological target: ERE dsDNA (estrogen response element); assay: Thiazole orange total fluorescence titration with unlabeled DNA; details: TO fluorescence ex 510 nm, em 535 nm; read-out: binding constant (dissociation constant)
Procedure: (§1) Fluorescence Measurements. Steady state fluorescence anisotropy measurements were carried out in 20 mM Tris (pH 7.9), 30 mM NaCl, 20 mM KCl, 1 mM MgCl2, and 5% glycerol. […] DNA samples used were either the non-labeled sequences shown in FIG. 2 or a fluorescein labeled duplex with a sequence matching GRE2 (FIG. 2).
(§2) For non-labeled DNA titrations (measuring the fluorescence from thiazole orange), the excitation wavelength was 510 nm and the emission was recorded at 535 nm with a 1.0 nm slit width. Glass cuvettes were used with a 0.3 cm path length. Titrations were performed using a constant concentration of unconjugated thiazole orange (TO) or TO-ZF and titrated with DNA as indicated.
(§3) Total fluorescence data were collected in parallel to the anisotropy measurements and were calculated from raw data as the fluorescence intensity in the vertical plane plus two times the fluorescence intensity of the horizontal plane, (TF=Ivv+2Ivh). These values were used to determine the percent of the maximum fluorescence for each point along the titration and fit to equation 2. [formula]
(§4) In equation 2, f corresponds to the fraction of TO-ZF conjugate bound at a given concentration of DNA. The concentration given as [TO(ZF)]T corresponds to either the unconjugated thiazole orange or the TOZF conjugate as indicated and [GRE]T is the total concentration of GRE binding sites. The parameter of the fit was the dissociation constant (Kd).
(§5) Titrations of the TO fluorescence upon binding of TO-ZF to unlabeled DNA were measured for the dsDNA sequences shown in FIG. 2. TO fluorescence was excited at 510 nm and collected at 535 nm. The GRE1 DNA sequence contains the same binding site as does the GRE2 DNA sequence used above, however, the GRE3 sequence contains a single mutation of the guanine in the native GRE target sequence (5′-TGTTCT-3′) to an adenine. The GRE2 and GRE3 sequences were generated for use in the photocleavage measurements described below. Finally, the GRE4 and ERE recognition sequences are from the non-specific GRE halfsite and the estrogen response element (ERE), respectively. M. A. L. Eriksson, J. Molec. Biol. 253:453-472 (1995). These are used in conjunction with the other sequences to determine the sensitivity of this probe. The DNA is not fluorescently labeled in these measurements. Therefore, the fluorescence is exclusively from thiazole orange molecules intercalated into dsDNA.
(§6) Fitting the binding curves to a two-state binding model (see Materials and Methods) results in a dissociation constant of 25 nM for GRE1 and GRE2, which contain the native GRE. Titrations of the modified GRE sequences and the ERE sequence yielded binding constants of 57 nM, 220 nM and 810 nM for the TO-ZF conjugate bound to GRE3, GRE4, and ERE, respectively.

[2] = biological target: GRE1 dsDNA (native GRE target sequence); assay: as above; details: TO fluorescence ex 510 nm, em 535 nm; read-out: dissociation constant, two-state binding model
Procedure: as §1, §2, §3, §4, §5, §6

[3] = biological target: GRE2 dsDNA (native GRE target sequence); assay: as above; details: TO fluorescence ex 510 nm, em 535 nm; read-out: dissociation constant, two-state binding model
Procedure: as §1, §2, §3, §4, §5, §6

[4] = biological target: GRE3 dsDNA (guanine of GRE changed to adenine); assay: as above; details: TO fluorescence ex 510 nm, em 535 nm; read-out: binding constant (dissociation constant)
Procedure: as §1, §2, §3, §4, §5, §6

[5] = biological target: GRE4 dsDNA (non-specific GRE halfsite); assay: as above; details: TO fluorescence ex 510 nm, em 535 nm; read-out: binding constant (dissociation constant)
Procedure: as §1, §2, §3, §4, §5, §6

GRE1 dsDNA = assay: Photocleavage at 514 nm, PAGE analysis; type: biochemical
Procedure: The purified DNA strands shown in FIG. 2 were 5′^-32P-end-labeled using T4 polynucleotide kinase and purified as described above. Oxygen removal was performed by bubbling argon through the samples. Irradiations were performed on […] samples in a 1.0 mL glass cuvette fit with a septum using an argon-ion laser at 514 nm with a power of 300 mW/cm^2. After irradiation, samples were divided in half and one portion treated with piperidine, the other immediately frozen. Piperidine treatment consisted of adding an equal volume of freshly prepared 20% piperidine in water to the sample followed by heating at 90° C. for 30 minutes. Both the treated and untreated fractions were dried under vacuum. To each dried sample was added […] of 80% formamide in water. The products of the photocleavage experiments were analyzed on a 15% polyacrylamide (19:1) vertical sequencing gel with dimensions 21 cm×40 cm×0.4 mm. […] Gels were dried and exposed to a phosphorimaging screen for 4 hours and analyzed on a Molecular Dynamics Storm-840 gel scanner in phosphorimaging mode.
Photocleavage of TO-ZF conjugate. […] After irradiation of TO-ZF bound to dsDNA in Tris buffer solution at 514 nm (514 nm is in the main band of the absorbance spectrum of intercalated thiazole orange as shown in FIG. 3), the photo-products were denatured and separated using denaturing polyacrylamide gel electrophoresis (PAGE). […]

pKd [1]: 6.09 | pKd [2]: 7.60 | pKd [3]: 7.60 | pKd [4]: 7.24 | pKd [5]: 6.66
Substance: TO-ZF: 29 amino acid single zinc finger from residues 438-465 of glucocorticoid receptor, thiazole orange coupled to a lysine ε-amine
site of photocleavage (GRE1 dsDNA; 514 nm irradiation, piperidine treatment): piperidine dependent cleavage to occur predominantly at the guanine within the GRE | total chemical yield of the piperidine dependent reactions (GRE1 dsDNA; samples reacted in the presence of oxygen): 2%
